Assays:
Assay type in all cases: cell-based
A2780 ovarian carcinoma = assay: In vitro cell proliferation assay (CellTiterGlo), A2780 control line; conditions: Homo sapiens, antiproliferative activity, 72 hours exposure, non RET-dependent control cell line
Experimental: (§1) In Vitro Cell Proliferation Assay
(§2) To evaluate the antiproliferative activity of a compound of formula (I) the following human cell lines were used: A2780 ovarian carcinoma; TT and MZ-CRC-1 medullary thyroid carcinoma, harboring a mutated RET-C634W and RET-M918T receptor respectively; LC-2/ad human lung adenocarcinoma, harboring the CCDC6-RET fusion protein. Exponentially growing cells were seeded and incubated at 37° C. in a humidified 5% CO2 atmosphere using appropriate medium supplemented with 10% Fetal Bovine Serum. 24 hours following cell plating, scalar doses of the compounds dissolved in 0.1% DMSO were added to the medium and cells were exposed to drugs for either 72 hours (A2780) or 144 hours (TT, MZ-CRC-1 and LC-2/ad), according to their different proliferation rate. At the end of treatment, cell proliferation was determined by an intracellular ATP monitoring system (CellTiterGlo—Promega), following manufacturer's instructions, and using an Envision instrument (PerkinElmer) as reader. Data obtained from compound versus vehicle treated cells were compared using Assay Explorer (Symyx Technologies Inc) software. IC50 values were calculated using sigmoidal interpolation curve fitting.
(§3) In the following Table A the antiproliferative activity of representative compounds of formula (I) on two medullary thyroid carcinoma cell lines expressing the aforementioned mutated forms of RET (TT and MZ-CRC-1) and on one lung adenocarcinoma cell line harboring the aforementioned fusion form of RET (LC-2/ad) is reported. As control, the antiproliferative activity of the same compounds on an unrelated non RET-dependent cell line (A2780) is reported. All these compounds show remarkable activity on RET-driven cellular models with respect to the unrelated ones.

[1] = test system: TT medullary thyroid carcinoma, harboring a mutated RET-C634W receptor; assay: In vitro cell proliferation assay (CellTiterGlo), TT; conditions: Homo sapiens, antiproliferative activity, 144 h exposure
Experimental: as §1, §2, §3

[2] = test system: LC-2/ad human lung adenocarcinoma, harboring the CCDC6-RET fusion protein; assay: In vitro cell proliferation assay (CellTiterGlo), LC-2/ad; conditions: antiproliferative activity, 144 h exposure
Experimental: as §1, §2, §3

[3] = test system: MZ-CRC-1 medullary thyroid carcinoma, harboring a mutated RET-M918T receptor; assay: In vitro cell proliferation assay (CellTiterGlo), MZ-CRC-1; conditions: Homo sapiens, antiproliferative activity, 144 h exposure
Experimental: as §1, §2, §3

| SMILES | IC50 (A2780 ovarian carcinoma) [nM] | IC50 [1] [µM] | IC50 [2] [µM] | IC50 [3] [µM] |
| --- | --- | --- | --- | --- |
| Nc1ncnc2[nH]cc(C#Cc3cccc(NC(=O)c4ccccc4)c3)c12 [cmpd 9, N-{3-[(4-amino-7H-pyrrolo[2,3-d]pyrimidin-5-yl)ethynyl]phenyl}benzamide] | 6900 | 0.865 | – | – |
| Nc1ncnc2[nH]cc(C#Cc3cccc(NC(=O)Cc4cccc(C(F)(F)F)c4)c3)c12 [cmpd 11, N-[3-(4-Amino-7H-pyrrolo[2,3-d]pyrimidin-5-ylethynyl)-phenyl]-2-(3-trifluoromethyl-phenyl)-acetamide] | 601 | 0.249 | – | – |
| CCN1CCN(Cc2ccc(NC(=O)Cc3cccc(C#Cc4c[nH]c5ncnc(N)c45)c3)cc2C(F)(F)F)CC1 [cmpd 12, 2-[3-(4-Amino-7H-pyrrolo[2,3-d]pyrimidin-5-ylethynyl)-phenyl]-N-[4-(4-ethyl-piperazin-1-ylmethyl)-3-trifluoromethyl-phenyl]-acetamide] | 695 | 0.012 | 0.111 | 0.222 |
| Nc1ncnc2[nH]cc(C#Cc3cccc(C(=O)NC4CC4)c3)c12 [cmpd 15, 3-[(4-amino-7H-pyrrolo[2,3-d]pyrimidin-5-yl)ethynyl]-N-cyclopropylbenzamide] | 4360 | 0.192 | – | – |
| Nc1ncnc2[nH]cc(C#Cc3cccc(NC(=O)c4cccc(C(F)(F)F)c4)c3)c12 [cmpd 24, N-{3-[(4-amino-7H-pyrrolo[2,3-d]pyrimidin-5-yl)ethynyl]phenyl}-3-(trifluoromethyl)benzamide] | 137 | 0.003 | 0.066 | 0.024 |
| Nc1ncnc2[nH]cc(C#Cc3cccc(NC(=O)c4cccc(F)c4)c3)c12 [cmpd 26, N-{3-[(4-amino-7H-pyrrolo[2,3-d]pyrimidin-5-yl)ethynyl]phenyl}-3-fluorobenzamide] | 3670 | 0.14 | 0.49 | – |
| Cc1ccc(C(=O)Nc2cccc(C#Cc3c[nH]c4ncnc(N)c34)c2)cc1 [cmpd 31, N-{3-[(4-amino-7H-pyrrolo[2,3-d]pyrimidin-5-yl)ethynyl]phenyl}-4-methylbenzamide] | 4450 | 0.111 | – | – |
| CN1CCC(n2cc(C#Cc3cccc(C(=O)NC4CC4)c3)c3c(N)ncnc32)CC1 [cmpd 46, 3-{[4-amino-7-(1-methylpiperidin-4-yl)-7H-pyrrolo[2,3-d]pyrimidin-5-yl]ethynyl}-N-cyclopropylbenzamide] | 4320 | 0.023 | 0.02 | – |
| Nc1ncnc2c1c(C#Cc1cccc(C(=O)NC3CC3)c1)cn2-c1cccnc1 [cmpd 68, 3-{[4-amino-7-(pyridin-3-yl)-7H-pyrrolo[2,3-d]pyrimidin-5-yl]ethynyl}-N-cyclopropylbenzamide] | 7180 | 0.043 | 0.021 | – |
| COc1cccc(-n2cc(C#Cc3cccc(C(=O)NC4CC4)c3)c3c(N)ncnc32)c1 [cmpd 70, 3-{[4-amino-7-(3-methoxyphenyl)-7H-pyrrolo[2,3-d]pyrimidin-5-yl]ethynyl}-N-cyclopropylbenzamide] | > 10000 | 0.213 | 0.213 | – |
| CCN1CCN(Cc2ccc(NC(=O)c3cccc(C#Cc4cn(C(C)C)c5ncnc(N)c45)c3)cc2C(F)(F)F)CC1 [cmpd 82, 3-{[4-amino-7-(propan-2-yl)-7H-pyrrolo[2,3-d]pyrimidin-5-yl]ethynyl}-N-{4-[(4-ethylpiperazin-1-yl)methyl]-3-(trifluoromethyl)phenyl}benzamide] | 46 | 0.001 | 0.004 | – |
| CC1(Cn2cc(C#Cc3cccc(C(=O)NC4CC4)c3)c3c(N)ncnc32)COC1 [cmpd 88, 3-({4-amino-7-[(3-methyloxetan-3-yl)methyl]-7H-pyrrolo[2,3-d]pyrimidin-5-yl}ethynyl)-N-cyclopropylbenzamide] | 1520 | 0.052 | 0.048 | – |
| CN1CCC(n2cc(C#Cc3cccc(C(=O)NC4CC4)c3)c3c(N)ncnc32)C1 (stereo not shown) [cmpd 89, 3-{[4-amino-7-(1-methylpyrrolidin-3-yl)-7H-pyrrolo[2,3-d]pyrimidin-5-yl]ethynyl}-N-cyclopropylbenzamide] | 6690 | 0.136 | 0.127 | – |
| Nc1ncnc2c1c(C#Cc1cccc(C(=O)NC3CC3)c1)cn2CC1CCC1 [cmpd 95, 3-{[4-amino-7-(cyclobutylmethyl)-7H-pyrrolo[2,3-d]pyrimidin-5-yl]ethynyl}-N-cyclopropylbenzamide] | 2450 | 0.06 | 0.032 | – |

Second part, the molecule after the results:

| IC50 (A2780 ovarian carcinoma) [nM] | IC50 [1] [µM] | IC50 [2] [µM] | IC50 [3] [µM] | SMILES |
| --- | --- | --- | --- | --- |
| 1590 | 0.016 | 0.019 | – | Cc1ccc(C(=O)NC2CC2)cc1C#Cc1cn(C(C)C)c2ncnc(N)c12 [cmpd 51, 3-{[4-amino-7-(propan-2-yl)-7H-pyrrolo[2,3-d]pyrimidin-5-yl]ethynyl}-N-cyclopropyl-4-methylbenzamide] |
| 837 | 0.01 | 0.009 | – | CC(C)n1cc(C#Cc2cc(C(=O)NC3CC3)ccc2F)c2c(N)ncnc21 [cmpd 53, 3-{[4-amino-7-(propan-2-yl)-7H-pyrrolo[2,3-d]pyrimidin-5-yl]ethynyl}-N-cyclopropyl-4-fluorobenzamide] |
| 539 | 0.004 | 0.004 | – | CC(C)n1cc(C#Cc2cc(F)cc(C(=O)NC3CC3)c2)c2c(N)ncnc21 [cmpd 58, 3-{[4-amino-7-(propan-2-yl)-7H-pyrrolo[2,3-d]pyrimidin-5-yl]ethynyl}-N-cyclopropyl-5-fluorobenzamide] |
| 1600 | 0.03 | 0.024 | – | CCC(C)n1cc(C#Cc2cccc(C(=O)NC3CC3)c2)c2c(N)ncnc21 (stereo not shown) [cmpd 85, 3-{[4-amino-7-(butan-2-yl)-7H-pyrrolo[2,3-d]pyrimidin-5-yl]ethynyl}-N-cyclopropylbenzamide] |
| 1910 | 0.025 | 0.018 | – | Nc1ncnc2c1c(C#Cc1cccc(C(=O)NC3CC3)c1)cn2CCF [cmpd 86, 3-{[4-amino-7-(2-fluoroethyl)-7H-pyrrolo[2,3-d]pyrimidin-5-yl]ethynyl}-N-cyclopropylbenzamide] |
| 1520 | 0.019 | 0.012 | – | CCn1c(C)c(C#Cc2cccc(C(=O)NC3CC3)c2)c2c(N)ncnc21 [cmpd 87, 3-[(4-amino-7-ethyl-6-methyl-7H-pyrrolo[2,3-d]pyrimidin-5-yl)ethynyl]-N-cyclopropylbenzamide] |
| 1800 | 0.017 | 0.019 | – | Nc1ncnc2c1c(C#Cc1cccc(C(=O)NC3CC3)c1)cn2CC1CC1 [cmpd 99, 3-{[4-amino-7-(cyclopropylmethyl)-7H-pyrrolo[2,3-d]pyrimidin-5-yl]ethynyl}-N-cyclopropylbenzamide] |
| 6110 | 0.023 | 0.045 | – | CC(C)n1cc(C#Cc2cc(C(=O)NC3CC3)ccc2C#N)c2c(N)ncnc21 [cmpd 108, 3-{[4-amino-7-(propan-2-yl)-7H-pyrrolo[2,3-d]pyrimidin-5-yl]ethynyl}-4-cyano-N-cyclopropylbenzamide] |
| 5880 | 0.227 | 0.279 | – | CC(C)n1cc(C#Cc2cccc(C(N)=O)c2)c2c(N)ncnc21 [cmpd 110, 3-{[4-amino-7-(propan-2-yl)-7H-pyrrolo[2,3-d]pyrimidin-5-yl]ethynyl}benzamide] |
